Data from US4518581A, “Imparting low- or anti-cariogenic property to orally-usable products” (Kabushiki Kaisha Hayashibara Seibutsu Kagaku Kenkyujo, priority 1981, dated 1985).

How the values were obtained:
[1] = system: Streptococcus mutans 6715 strain; assay: Organic acid formation from saccharides by Streptococcus mutans cells, pH-measurement (Experiment 4); format: cell-based; settings: 37° C., 30 minutes; for pH-Level of the reaction mixture (organic acid formation): cell suspension, Stephan's buffer (pH 7.0), saccharide solution; for organic acid formation from the saccharide: Streptococcus mutans 6715 cells
Protocol: Organic acid formation from some saccharides by Streptococcus mutans was tested: Streptococcus mutans 6715 strain was cultivaed similarly as in EXPERIMENT 1, and the cells, obtained by centrifuging the culture, were washed with 0.9 w/v % sodium chloride solution, followed by additional centrifugation. Two ml of a mixture solution, consisting of 0.2 ml of the cell suspension, prepared from about 100 ml of the culture, 1.5 ml of Stephan's buffer, and 0.3 ml aqueous solution of each saccharide as listed in TABLE II, was incubated at 37° C. for 30 minutes, followed by pH-measurement of the reaction mixture. The Stephan's buffer was prepared by the method as reported by R. M. Stephan et al., Journal of Dental Research, Vol.26, pp.15-41 (1947): One ml of Solution I, prepared by dissolving 17.89 g Na2 HPO4. 12H2 O, 7.92 g KOH and 6.81 g KH2 PO4 in water to give a final volume of 100 ml, was placed in a 100-ml volumetric flask, and mixed with about 90 ml of water. To the flask was added 1 ml of Solution II, prepared by dissolving 4.54 g KH2 PO4, 0.32 g MgSO4.7H2 O, 0.57 g CaSO4.2H2 O and 10 ml of 3.5% hydrochloric acid solution in water to give a final volume of 100 ml. This mixture was diluted with additional water to obtain 100 ml of Stephan's buffer (pH 7.0).
The results are given in TABLE II, wherein the organic acid formation from the saccharides can be estimated by the pH-values.

[2] = target: T1, water-insoluble glucan producing enzyme (Streptococcus downei, UniProt P27470); assay: Effect of saccharides on formation of water-insoluble glucan from sucrose (Experiment 3); format: biochemical, Streptococcus mutans 6715 strain; settings: 1 ml 4 w/v % sucrose plus 1 ml 4 w/v % saccharide, 0.02 units enzyme, 37° C., 16 hours; for A: amounts of water-insoluble glucan formed: sucrose control 300
T1 construct: endogenous in cells; host or cells: Streptococcus mutans 6715 strain (today S. sobrinus), culture supernatant, ammonium sulfate precipitate, dialyzed
T1 sequence (P27470 39-1592): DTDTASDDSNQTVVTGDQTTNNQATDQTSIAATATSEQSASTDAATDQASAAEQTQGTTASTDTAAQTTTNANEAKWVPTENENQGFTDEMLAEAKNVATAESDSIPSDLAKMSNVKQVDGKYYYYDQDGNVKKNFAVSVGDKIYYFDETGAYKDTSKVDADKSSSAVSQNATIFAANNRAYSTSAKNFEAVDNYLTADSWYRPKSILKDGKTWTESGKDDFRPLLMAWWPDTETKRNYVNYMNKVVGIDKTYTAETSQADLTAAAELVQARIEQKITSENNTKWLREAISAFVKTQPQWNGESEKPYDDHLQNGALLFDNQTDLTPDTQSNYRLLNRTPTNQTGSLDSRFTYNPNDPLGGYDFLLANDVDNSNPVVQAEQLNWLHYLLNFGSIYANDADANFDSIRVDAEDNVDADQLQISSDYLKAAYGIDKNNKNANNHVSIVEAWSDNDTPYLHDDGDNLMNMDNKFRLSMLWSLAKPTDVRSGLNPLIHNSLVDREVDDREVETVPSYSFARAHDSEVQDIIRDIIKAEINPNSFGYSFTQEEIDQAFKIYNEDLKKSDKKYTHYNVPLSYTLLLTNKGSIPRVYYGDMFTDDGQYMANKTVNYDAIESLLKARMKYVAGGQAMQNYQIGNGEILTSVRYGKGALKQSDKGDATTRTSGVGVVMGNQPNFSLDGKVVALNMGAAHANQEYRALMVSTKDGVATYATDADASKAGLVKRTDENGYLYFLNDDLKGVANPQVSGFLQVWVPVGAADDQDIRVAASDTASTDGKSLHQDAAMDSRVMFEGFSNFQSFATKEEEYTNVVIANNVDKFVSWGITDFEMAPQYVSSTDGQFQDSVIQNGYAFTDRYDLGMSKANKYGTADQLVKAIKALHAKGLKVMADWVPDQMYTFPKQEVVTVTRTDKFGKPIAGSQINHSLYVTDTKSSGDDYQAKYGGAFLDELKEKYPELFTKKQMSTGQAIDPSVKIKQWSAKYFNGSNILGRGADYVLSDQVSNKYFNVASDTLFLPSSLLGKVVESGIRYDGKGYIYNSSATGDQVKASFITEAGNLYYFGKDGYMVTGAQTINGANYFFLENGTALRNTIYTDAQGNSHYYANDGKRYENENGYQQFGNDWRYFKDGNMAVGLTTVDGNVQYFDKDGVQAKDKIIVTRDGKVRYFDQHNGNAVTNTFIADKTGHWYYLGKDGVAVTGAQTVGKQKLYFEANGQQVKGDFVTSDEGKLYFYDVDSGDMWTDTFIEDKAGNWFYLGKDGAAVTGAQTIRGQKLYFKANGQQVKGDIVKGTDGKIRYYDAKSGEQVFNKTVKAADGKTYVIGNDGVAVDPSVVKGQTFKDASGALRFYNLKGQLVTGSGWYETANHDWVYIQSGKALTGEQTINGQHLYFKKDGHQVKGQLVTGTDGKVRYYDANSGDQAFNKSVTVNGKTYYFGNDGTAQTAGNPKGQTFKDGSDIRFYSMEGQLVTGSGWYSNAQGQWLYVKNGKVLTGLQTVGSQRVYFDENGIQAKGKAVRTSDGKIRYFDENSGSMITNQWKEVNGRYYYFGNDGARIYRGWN
Protocol: After completion of the cultivation, the culture was separated into cell precipitant and supernatant. Thereafter, to the supernatant was added with ammonium sulfate to give 60% saturation, and the resultant precipitant was dialyzed against 0.1M phosphate buffer (pH 7.2) to obtain an aqueous solution containing the enzyme.
The titers of the enzyme were assayed as follows: A mixture solution, consisting of 1 ml of 0.2M aqueous sucrose solution, 1 ml of water, 1 ml of 0.1M phosphate buffer containing 0.05 w/v % NaN3, and 0.5 ml of the enzyme solution (below 0.05 units), is incubated at 37° C. for 9 hours, followed by centrifugation of the reaction mixture. The resultant precipitant is mixed with 4 ml of 0.5N sodium hydroxide solution, and then incubated at this temperature for an additional one hour to dissolve the precipitant. The amount of water-insoluble glucan formed during the enzymatic reaction is then measured. One unit of the enzyme is defined as the amount of enzyme that transfers 1 μmole glucose from sucrose to the water-insoluble glucan in one minute.
Effects of some saccharides on the formation of water-insoluble glucan were tested: Water-insoluble glucan formation and inhibition thereof were determined according to the enzyme assay method as described in EXPERIMENT 1, except that the mixture solution contained sucrose, or sucrose and each saccharide as listed in TABLE I. The experiment was carried out as follows: A mixture solution, consisting of 1 ml of 4 w/v % aqueous sucrose solution, 1 ml of 4 w/v % aqueous solution of each saccharide as listed in TABLE I, 1.5 ml of 0.1M phosphate buffer containing 0.05 w/v % NaN3, and 0.5 ml of the enzyme solution (0.02 units), was incubated at 37° C. for 16 hours, and the water-insoluble glucan formation in the reaction mixture was determined according to the enzyme assy method.
In a control experiment, 1 ml of the above described saccharide solution was replaced with the same amount of water.
The inhibition degree was calculated with following equation:
Inhibition degree (%)=100-A/B×100
where A and B are respective amounts of the water-insoluble glucan formed (μg/ml) when the mixture solution contained sucrose or sucrose and each of the saccharides.

Compound | pH-Level of the reaction mixture (organic acid formation) [1] | B: inhibition degree on water-insoluble glucan formation [2] [%] | A: amounts of water-insoluble glucan formed [2] [µg/mL] | organic acid formation from the saccharide [1]
OC[C@H]1O[C@@H](O[C@H]2[C@H](O)[C@@H](O)C(O)O[C@@H]2CO)[C@H](O)[C@@H](O)[C@@H]1O (some centres unmarked) [Cellobiose] | 7.0 |  |  | 
CO[C@H]1O[C@H](CO)[C@@H](O)[C@H](O)[C@H]1O [Methyl-α-D-Glucose] | 7.0 | 14 |  | 
OC[C@H](O)[C@@H](O)[C@H](O)[C@H](O)CO[C@H]1O[C@H](CO)[C@@H](O)[C@H](O)[C@H]1O [Isomaltitol] | 7.0 | 10 | 270 | 
OC[C@H](O)[C@@H](O)[C@H](O)[C@H](O)CO[C@H]1O[C@H](CO[C@H]2O[C@H](CO)[C@@H](O)[C@H](O)[C@H]2O)[C@@H](O)[C@H](O)[C@H]1O [Isomaltotriitol, 6-O-α-isomaltosyl glucitol] | 7.0 |  | 60 | no organic acid formation
OC[C@@H](O)[C@@H](O[C@H]1O[C@H](CO)[C@@H](O[C@H]2O[C@H](CO[C@H]3O[C@H](CO)[C@@H](O)[C@H](O)[C@H]3O)[C@@H](O)[C@H](O)[C@H]2O)[C@H](O)[C@H]1O)[C@H](O)[C@@H](O)CO [Isomaltosyl maltitol, 4^2 -O-α--isomaltosyl maltitol] | 7.0 |  | 48 | no organic acid formation
OC[C@@H](O)[C@@H](O)[C@H](O)[C@H](O)CO [Mannitol] | 7.0 | 5 | 286 | 
OC[C@H]1O[C@H](O[C@H]2[C@H](O)[C@@H](O)[C@@H](O[C@H]3[C@H](O)[C@@H](O)[C@@H](O[C@H]4[C@H](O)[C@@H](O)[C@@H](O[C@H]5[C@H](O)[C@@H](O)C(O)O[C@@H]5CO)O[C@@H]4CO)O[C@@H]3CO)O[C@@H]2CO)[C@H](O)[C@@H](O)[C@@H]1O (some centres unmarked) [Maltopentaose] | 5.6 | 12 | 264 | 
OC[C@H]1O[C@H](O[C@H]2O[C@H](CO)[C@@H](O)[C@H](O)[C@H]2O)[C@H](O)[C@@H](O)[C@@H]1O [Trehalose] | 7.0 | 1 | 297 | 
Inulobiose | 4.5 | 8 | 276 | 
OC[C@H]1O[C@@H](O[C@@H]2[C@@H](CO)OC(O)(CO)[C@H]2O)[C@H](O)[C@@H](O)[C@H]1O (mixture of isomers) [Lactulose] | 7.0 | 12 | 264 | 
OC[C@H]1OC(O)[C@H](O)[C@@H](O)[C@@H]1O (stereo partly drawn) [D-Glucose] | 4.0 |  |  | 
OC[C@H]1O[C@H](OC[C@H]2OC(O)[C@H](O)[C@@H](O)[C@@H]2O)[C@H](O)[C@@H](O)[C@H]1O (some centres unmarked) [Melibiose] | 7.0 |  | 300 | 
OC[C@H](O)[C@@H](O)[C@H](O)[C@H](O)CO[C@H]1O[C@H](CO[C@H]2O[C@H](CO[C@H]3O[C@H](CO)[C@@H](O)[C@H](O)[C@H]3O)[C@@H](O)[C@H](O)[C@H]2O)[C@@H](O)[C@H](O)[C@H]1O [Isomaltotetraitol, 6^2 -O-α-isomaltosyl isomaltitol] | 7.0 |  | 45 | no organic acid formation
OC[C@@H](O)[C@@H](O[C@H]1O[C@H](CO)[C@@H](O)[C@H](O)[C@H]1O)[C@H](O)[C@@H](O)CO [Maltitol] | 7.0 |  |  | 
OC[C@H]1O[C@H](O[C@H]2[C@H](O)[C@@H](O)[C@H](O)O[C@@H]2CO)[C@H](O)[C@@H](O)[C@@H]1O [Maltose] | 4.0 |  |  | 
OC[C@H]1O[C@@](CO)(OC[C@H]2O[C@@](CO)(O[C@H]3O[C@H](CO)[C@@H](O)[C@H](O)[C@H]3O)[C@@H](O)[C@@H]2O)[C@@H](O)[C@@H]1O [6-Kestose] | 6.8 | 3 | 291 | 
C[C@@H]1OC(O)[C@H](O)[C@H](O)[C@H]1O (stereo partly drawn) [Rhamnose, L-Rhamnose] | 7.0 | 0 | 300 | 
OC[C@H]1OC(O)[C@H](O)[C@@H](O)[C@H]1O (stereo partly drawn) [D-Galactose] | 7.0 |  |  | 
OC[C@@H](O)[C@@H](O)[C@H](O)[C@@H](O)CO [Sorbitol] | 7.0 | 8 | 290 | 
OC[C@H]1O[C@@](CO)(OC[C@H]2O[C@](O)(CO)[C@@H](O)[C@@H]2O)[C@@H](O)[C@@H]1O [Levanbiose] | 6.5 | 4 | 288 | 
OC[C@@H](O)[C@@H](O)CO [Erythlitol] | 7.0 | 3 | 290 | 
OC[C@@H](O)[C@@H](O[C@H]1O[C@H](CO)[C@@H](O[C@H]2O[C@H](CO)[C@@H](O[C@H]3O[C@H](CO)[C@@H](O)[C@H](O)[C@H]3O)[C@H](O)[C@H]2O)[C@H](O)[C@H]1O)[C@H](O)[C@@H](O)CO [Maltotetraitol] |  | 21 | 236 | 
OC[C@H]1OC(O)[C@@H](O)[C@@H](O)[C@@H]1O (stereo partly drawn) [D-Mannose] | 5.5 |  |  | 
OC[C@@H](O)[C@@H](O[C@@H]1O[C@H](CO)[C@H](O)[C@H](O)[C@H]1O)[C@H](O)[C@@H](O)CO [Lactitol] | 7.0 |  |  | 
OC[C@H]1O[C@@](CO)(O[C@H]2O[C@H](CO)[C@@H](O)[C@H](O)[C@H]2O)[C@@H](O)[C@@H]1O [Sucrose] | 4.0 |  |  | 
